# Experimental data taken from ChEMBL document CHEMBL1201862, “PubChem BioAssay data set” (2004).
#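 Cells were grown in 96-well plates and exposed to each compound for 48 hours at five concentrations; endpoints were interpolated linearly between bracketing concentrations, or set to the highest concentration if not reached. Abbreviation: GI50, concentration required for 50% inhibition of growth.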 Calls of active or inactive are those of the source. Cut-off read from the data, not from the text of the source: active = GI50 up to about 1.1 µM and inactive = higher.
# Key:
# Assay in all cases: DTP human tumour cell line panel, 48 h
# T47D = tested on: T47D
# Malme-3M = tested on: Malme-3M
# NCI-H226 = tested on: NCI-H226
# OVCAR-4 = tested on: OVCAR-4
# CAKI-1 = tested on: CAKI-1
# NCI-H522 = tested on: NCI-H522
# A549 = tested on: A549
# RXF 393 = tested on: RXF 393
# NCI-H460 = tested on: NCI-H460
# EKVX = tested on: EKVX
# HCT-15 = tested on: HCT-15
# ACHN = tested on: ACHN
# HL-60 = tested on: HL-60
# OVCAR-3 = tested on: OVCAR-3
# UACC-257 = tested on: UACC-257
# OVCAR-8 = tested on: OVCAR-8
# MDA-MB-231 = tested on: MDA-MB-231
# UACC-62 = tested on: UACC-62
# NCI-H23 = tested on: NCI-H23
# K562 = tested on: K562
# PC-3 = tested on: PC-3
# SF-295 = tested on: SF-295
# SNB-19 = tested on: SNB-19
# HOP-62 = tested on: HOP-62
# SNB-75 = tested on: SNB-75
# RPMI-8226 = tested on: RPMI-8226
# A498 = tested on: A498
# COLO 205 = tested on: COLO 205
# Hs-578T = tested on: Hs-578T
# MCF7 = tested on: MCF7
# DU-145 = tested on: DU-145
# HOP-92 = tested on: HOP-92
# SK-MEL-5 = tested on: SK-MEL-5
# OVCAR-5 = tested on: OVCAR-5
# BT-549 = tested on: BT-549
# SK-OV-3 = tested on: SK-OV-3
# SF-268 = tested on: SF-268
# MOLT-4 = tested on: MOLT-4
# SK-MEL-28 = tested on: SK-MEL-28
# UO-31 = tested on: UO-31
# IGROV-1 = tested on: IGROV-1
# HT-29 = tested on: HT-29
# HCT-116 = tested on: HCT-116
# HCC 2998 = tested on: HCC 2998
# SN12C = tested on: SN12C
# TK-10 = tested on: TK-10
# KM12 = tested on: KM12
# SF-539 = tested on: SF-539
# M14 = tested on: M14
# SW-620 = tested on: SW-620
# LOX IMVI = tested on: LOX IMVI
# MDA-N = tested on: MDA-N
# CCRF-CEM = tested on: CCRF-CEM
# MDA-MB-435 = tested on: MDA-MB-435
# NCI/ADR-RES = tested on: NCI/ADR-RES
# U-251 = tested on: U-251
# 786-0 = tested on: 786-0
# SK-MEL-2 = tested on: SK-MEL-2
# SR = tested on: SR
smiles,measurement,setting,value
O=c1c(Cc2cccc(Cc3c(O)oc4ccccc4c3=O)c2)c(O)oc2ccccc12,GI50,T47D,> 100 µM (inactive)
same,GI50,Malme-3M,> 100 µM (inactive)
same,GI50,NCI-H226,> 100 µM (inactive)
same,GI50,OVCAR-4,> 100 µM (inactive)
same,GI50,CAKI-1,> 100 µM (inactive)
same,GI50,NCI-H522,> 100 µM (inactive)
same,GI50,A549,> 100 µM (inactive)
same,GI50,RXF 393,> 100 µM (inactive)
same,GI50,NCI-H460,> 100 µM (inactive)
same,GI50,EKVX,> 100 µM (inactive)
same,GI50,HCT-15,> 100 µM
same,GI50,ACHN,> 100 µM (inactive)
same,GI50,HL-60,> 100 µM (inactive)
same,GI50,OVCAR-3,> 100 µM (inactive)
same,GI50,UACC-257,> 100 µM (inactive)
same,GI50,OVCAR-8,> 100 µM (inactive)
same,GI50,MDA-MB-231,> 100 µM (inactive)
same,GI50,UACC-62,> 100 µM (inactive)
same,GI50,NCI-H23,> 100 µM (inactive)
same,GI50,K562,> 100 µM (inactive)
same,GI50,PC-3,> 100 µM (inactive)
same,GI50,SF-295,> 100 µM (inactive)
same,GI50,SNB-19,> 100 µM (inactive)
same,GI50,HOP-62,> 100 µM (inactive)
same,GI50,SNB-75,43 µM (inactive)
same,GI50,RPMI-8226,> 100 µM (inactive)
same,GI50,A498,> 100 µM (inactive)
same,GI50,COLO 205,> 100 µM (inactive)
same,GI50,Hs-578T,> 100 µM (inactive)
same,GI50,MCF7,62.4 µM (inactive)
same,GI50,DU-145,> 100 µM (inactive)
same,GI50,HOP-92,> 100 µM (inactive)
same,GI50,SK-MEL-5,> 100 µM (inactive)
same,GI50,OVCAR-5,> 100 µM (inactive)
same,GI50,BT-549,> 100 µM (inactive)
same,GI50,SK-OV-3,> 100 µM (inactive)
same,GI50,SF-268,> 100 µM (inactive)
same,GI50,MOLT-4,> 100 µM (inactive)
same,GI50,SK-MEL-28,> 100 µM (inactive)
same,GI50,UO-31,> 100 µM (inactive)
same,GI50,IGROV-1,> 100 µM (inactive)
same,GI50,HT-29,> 100 µM (inactive)
same,GI50,HCT-116,> 100 µM (inactive)
same,GI50,HCC 2998,> 100 µM (inactive)
same,GI50,SN12C,> 100 µM (inactive)
same,GI50,TK-10,> 100 µM (inactive)
same,GI50,KM12,> 100 µM (inactive)
same,GI50,SF-539,> 100 µM (inactive)
same,GI50,M14,> 100 µM (inactive)
same,GI50,SW-620,> 100 µM (inactive)
same,GI50,LOX IMVI,> 100 µM (inactive)
same,GI50,MDA-N,> 100 µM (inactive)
same,GI50,CCRF-CEM,> 100 µM (inactive)
same,GI50,MDA-MB-435,> 100 µM (inactive)
same,GI50,NCI/ADR-RES,> 100 µM (inactive)
same,GI50,U-251,> 100 µM (inactive)
same,GI50,786-0,> 100 µM (inactive)
same,GI50,SK-MEL-2,> 100 µM (inactive)
Cc1nc2c(Cl)cc(Cl)cc2c(Cl)c1CCCl,GI50,T47D,52.8 µM (inactive)
same,GI50,Malme-3M,> 100 µM (inactive)
same,GI50,NCI-H226,> 100 µM (inactive)
same,GI50,CAKI-1,64 µM (inactive)
same,GI50,NCI-H522,87.1 µM (inactive)
same,GI50,A549,78.7 µM (inactive)
same,GI50,RXF 393,22.8 µM (inactive)
same,GI50,NCI-H460,> 100 µM (inactive)
same,GI50,EKVX,78.2 µM (inactive)
same,GI50,HCT-15,60.5 µM
same,GI50,ACHN,> 100 µM (inactive)
same,GI50,HL-60,55.2 µM (inactive)
same,GI50,OVCAR-3,> 100 µM (inactive)
same,GI50,UACC-257,> 100 µM (inactive)
same,GI50,OVCAR-8,> 100 µM (inactive)
same,GI50,MDA-MB-231,69.5 µM (inactive)
same,GI50,UACC-62,79.6 µM (inactive)
same,GI50,NCI-H23,> 100 µM (inactive)
same,GI50,K562,80.5 µM (inactive)
same,GI50,PC-3,60.5 µM (inactive)
same,GI50,SF-295,> 100 µM (inactive)
same,GI50,SNB-19,56.4 µM (inactive)
same,GI50,HOP-62,> 100 µM (inactive)
same,GI50,SNB-75,42.9 µM (inactive)
same,GI50,RPMI-8226,57.5 µM (inactive)
same,GI50,A498,72.4 µM (inactive)
same,GI50,COLO 205,> 100 µM (inactive)
same,GI50,Hs-578T,51.4 µM (inactive)
same,GI50,MCF7,> 100 µM (inactive)
same,GI50,DU-145,> 100 µM (inactive)
same,GI50,SK-MEL-5,45.8 µM (inactive)
same,GI50,OVCAR-5,78.3 µM (inactive)
same,GI50,BT-549,51.1 µM (inactive)
same,GI50,SK-OV-3,> 100 µM (inactive)
same,GI50,SF-268,75.2 µM (inactive)
same,GI50,MOLT-4,55 µM (inactive)
same,GI50,SK-MEL-28,> 100 µM (inactive)
same,GI50,SR,79.1 µM (inactive)
same,GI50,UO-31,30.1 µM (inactive)
same,GI50,IGROV-1,> 100 µM (inactive)
same,GI50,HT-29,78.7 µM (inactive)
same,GI50,HCT-116,76 µM (inactive)
same,GI50,HCC 2998,> 100 µM (inactive)
same,GI50,SN12C,> 100 µM (inactive)
same,GI50,TK-10,32.4 µM (inactive)
same,GI50,KM12,> 100 µM (inactive)
same,GI50,SF-539,> 100 µM (inactive)
same,GI50,M14,> 100 µM (inactive)
same,GI50,SW-620,> 100 µM (inactive)
same,GI50,LOX IMVI,> 100 µM (inactive)
same,GI50,MDA-N,> 100 µM (inactive)
same,GI50,CCRF-CEM,62.8 µM (inactive)
same,GI50,MDA-MB-435,74.6 µM (inactive)
same,GI50,NCI/ADR-RES,72.3 µM (inactive)
same,GI50,U-251,> 100 µM (inactive)
same,GI50,786-0,> 100 µM (inactive)
same,GI50,SK-MEL-2,99.5 µM (inactive)
